# Data: patent US7560121B1 (LTS Lohmann Therapie-Systeme AG, priority 1999, dated 2009)
# Counter-ions that a name gives are not always drawn.
# Experiments:
# [1] = Solubility of fluphenazine dihydrochloride in poly(meth)acrylate pressure-sensitive adhesives; assay type: physicochemical
# Source text: Addition of Eudragit E100 (Röhm Pharma GmbH) was therefore provided for in all cases. This poly-(meth)acrylate has trialkylamino groups in its lateral chain and is capable of functioning as an ion-exchange resin. In this way, the chloride ions of the fluphenazine dihydrochloride are bonded to Eudragit E100 while protons are accepted simultaneously, with fluphenazine being formed as a free base in a certain equilibrium. Advantageous is an at least equimolar ratio of Eudragit E100 and fluphenazine dihydrochloride, i.e. of amounts by weight having the same equivalent weight calculated as potassium hydroxide.
# [2] = In vitro skin permeation through human epidermis (modified Franz cell, HPLC); assay type: in vitro ADME; settings: 32° C., Oppanol-based matrix with Eudragit E100 and oleic acid, n=3
# Protocol: Skin permeability was examined in vitro using full thickness cow udder skin and human epidermis, the latter having been separated from human full-thickness skin by heat separation.
# The tests were carried out at 32° C. in a suitable permeation device (modified Franz cell), and fluphenazine was measured in the resultant samples using a suitable HPLC method. All indicated values are based on n=3 samples.
# [3] = in vivo; cited from earlier work
SMILES,solubility in Durotak 387-2051 ([1]; with addition of Eudragit E100),solubility in Durotak 387-2287 ([1]; with addition of Eudragit E100),"solubility in poly(meth)acrylate adhesive polymers or the organic solvents required for processing ([1]; without Eudragit E100, result in words)",maximum flow rate of fluphenazine base [2] [μg/h·cm^2],half-life in blood plasma [3] [h]
OCCN1CCN(CCCN2c3ccccc3Sc3ccc(C(F)(F)F)cc32)CC1 [fluphenazine dihydrochloride],at least 15 %-wt.,at least 10 %-wt.,almost insoluble,–,–
OCCN1CCN(CCCN2c3ccccc3Sc3ccc(C(F)(F)F)cc32)CC1 [fluphenazine],–,–,–,2.9,15
